Results published in patent US20220259593A1, “CONTROL OF MAMMALIAN GENE DOSAGE USING CRISPR” (The Regents of the University of California, priority 2019, published 2022).

Tested on: K562 CRISPRi cells
Assay: Perturb-seq pooled growth measurement (sgRNA counts, growth phenotype γ, relative activity)
Format: cell-based, human
Conditions: sequencing read counts; for Perturb-seq pooled growth sgRNA counts, d5: 5 days of growth (day seven after transduction); for Perturb-seq pooled growth sgRNA counts, d10: 10 days of growth (day twelve after transduction); for Perturb-seq pooled growth sgRNA counts, T0: T0 = day two after transduction
Method in brief: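 sgRNA abundance was sequenced from genomic DNA of the same transduced population sampled on days two, seven and twelve. Phenotype γ compares normalized day seven and twelve counts with day two. Day-seven values (five days of growth) define relative sgRNA activity.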

With “HSPA5_+_128003624.23-P1P2_00: sgRNA targeting HSPA5, GAGCCGAGTAGGCGACGGTG, SEQ ID NO: 88 (listed as DNA, chemistry not fully specified)” the “Perturb-seq pooled growth sgRNA counts, d5” value was 1756, the “Perturb-seq pooled growth sgRNA counts, d10” value was 2176 and the “Perturb-seq pooled growth sgRNA counts, T0” value was 5785.

“HSPA5_+_128003624.23-P1P2_01: sgRNA targeting HSPA5, GAACCGAGTAGGCGACGGTG, SEQ ID NO: 91 (listed as DNA, chemistry not fully specified)” was tested, and the “Perturb-seq pooled growth sgRNA counts, d5” value was 3124, the “Perturb-seq pooled growth sgRNA counts, d10” value was 3812 and the “Perturb-seq pooled growth sgRNA counts, T0” value was 7580.

In the case of “HSPA5_+_128003624.23-P1P2_04: sgRNA targeting HSPA5, GAGCCGAGAAGGCGACGGTG, SEQ ID NO: 89 (listed as DNA, chemistry not fully specified)”, the “Perturb-seq pooled growth sgRNA counts, d5” value is reported as 3304, the “Perturb-seq pooled growth sgRNA counts, d10” value is reported as 4282 and the “Perturb-seq pooled growth sgRNA counts, T0” value is reported as 11091.

“HSPA5_+_128003624.23-P1P2_06: sgRNA targeting HSPA5, GAGCCGAGTAGACGACGGTG, SEQ ID NO: 92 (listed as DNA, chemistry not fully specified)” was tested, and the “Perturb-seq pooled growth sgRNA counts, d5” value was 17649, the “Perturb-seq pooled growth sgRNA counts, d10” value was 23714 and the “Perturb-seq pooled growth sgRNA counts, T0” value was 10180.

“HSPA5_+_128003624.23-P1P2_08: sgRNA targeting HSPA5, GAGCCGAGTGGGCGACGGTG, SEQ ID NO: 90 (listed as DNA, chemistry not fully specified)” was tested, and the “Perturb-seq pooled growth sgRNA counts, d5” value was 3005, the “Perturb-seq pooled growth sgRNA counts, d10” value was 3487 and the “Perturb-seq pooled growth sgRNA counts, T0” value was 10148.

“HSPA9_−_137911079.23-P1P2_00: sgRNA targeting HSPA9, GGAGCTGCGCGATGCGGTGG, SEQ ID NO: 131 (listed as DNA, chemistry not fully specified)” was tested, and the “Perturb-seq pooled growth sgRNA counts, d5” value was 944, the “Perturb-seq pooled growth sgRNA counts, d10” value was 835 and the “Perturb-seq pooled growth sgRNA counts, T0” value was 5450.

For “HSPA9_−_137911079.23-P1P2_02: sgRNA targeting HSPA9, GGAGTTGCGCGATGCGGTGG, SEQ ID NO: 133 (listed as DNA, chemistry not fully specified)”, the “Perturb-seq pooled growth sgRNA counts, d5” value was 1727, the “Perturb-seq pooled growth sgRNA counts, d10” value was 1872 and the “Perturb-seq pooled growth sgRNA counts, T0” value was 4345.

In the case of “HSPA9_−_137911079.23-P1P2_04: sgRNA targeting HSPA9, GGAGCTGCGCAATGCGGTGG, SEQ ID NO: 135 (listed as DNA, chemistry not fully specified)”, the “Perturb-seq pooled growth sgRNA counts, d5” value is reported as 9346, the “Perturb-seq pooled growth sgRNA counts, d10” value is reported as 10829 and the “Perturb-seq pooled growth sgRNA counts, T0” value is reported as 6754.

With “HSPA9_−_137911079.23-P1P2_07: sgRNA targeting HSPA9, GGAGCTGCGGGATGCGGTGG, SEQ ID NO: 132 (listed as DNA, chemistry not fully specified)” the “Perturb-seq pooled growth sgRNA counts, d5” value was 1513, the “Perturb-seq pooled growth sgRNA counts, d10” value was 1463 and the “Perturb-seq pooled growth sgRNA counts, T0” value was 5941.

“HSPA9_−_137911079.23-P1P2_08: sgRNA targeting HSPA9, GGAGCTGCTCGATGCGGTGG, SEQ ID NO: 134 (listed as DNA, chemistry not fully specified)” was tested, and the “Perturb-seq pooled growth sgRNA counts, d5” value was 2803, the “Perturb-seq pooled growth sgRNA counts, d10” value was 2726 and the “Perturb-seq pooled growth sgRNA counts, T0” value was 3137.

For “HSPE1_+_198365089.23-P1P2_00: sgRNA targeting HSPE1, GGAGACTCGCAGTCCGGCCC, SEQ ID NO: 9 (listed as DNA, chemistry not fully specified)”, the “Perturb-seq pooled growth sgRNA counts, d5” value was 2348, the “Perturb-seq pooled growth sgRNA counts, d10” value was 1179 and the “Perturb-seq pooled growth sgRNA counts, T0” value was 6813.

For “HSPE1_+_198365089.23-P1P2_01: sgRNA targeting HSPE1, GGAGACACGCAGTCCGGCCC, SEQ ID NO: 65 (listed as DNA, chemistry not fully specified)”, the “Perturb-seq pooled growth sgRNA counts, d5” value was 4228, the “Perturb-seq pooled growth sgRNA counts, d10” value was 2663 and the “Perturb-seq pooled growth sgRNA counts, T0” value was 9669.

“HSPE1_+_198365089.23-P1P2_02: sgRNA targeting HSPE1, GGAGACTGGCAGTCCGGCCC, SEQ ID NO: 67 (listed as DNA, chemistry not fully specified)” was tested, and the “Perturb-seq pooled growth sgRNA counts, d5” value was 5731, the “Perturb-seq pooled growth sgRNA counts, d10” value was 4437 and the “Perturb-seq pooled growth sgRNA counts, T0” value was 7969.

In the case of “HSPE1_+_198365089.23-P1P2_03: sgRNA targeting HSPE1, GGTGACTCGCAGTCCGGCCC, SEQ ID NO: 66 (listed as DNA, chemistry not fully specified)”, the “Perturb-seq pooled growth sgRNA counts, d5” value is reported as 3034, the “Perturb-seq pooled growth sgRNA counts, d10” value is reported as 2279 and the “Perturb-seq pooled growth sgRNA counts, T0” value is reported as 7473.

“HSPE1_+_198365089.23-P1P2_14: sgRNA targeting HSPE1, GGAGACTCGCAGTCCTGCCC, SEQ ID NO: 68 (listed as DNA, chemistry not fully specified)” was tested, and the “Perturb-seq pooled growth sgRNA counts, d5” value was 6501, the “Perturb-seq pooled growth sgRNA counts, d10” value was 6498 and the “Perturb-seq pooled growth sgRNA counts, T0” value was 4808.

“MTOR_+_11322547.23-P1P2_00: sgRNA targeting MTOR, GGGCAGGGGGCCTGAAGCGG, SEQ ID NO: 146 (listed as DNA, chemistry not fully specified)” was tested, and the “Perturb-seq pooled growth sgRNA counts, d5” value was 6328, the “Perturb-seq pooled growth sgRNA counts, d10” value was 3144 and the “Perturb-seq pooled growth sgRNA counts, T0” value was 17632.

In the case of “MTOR_+_11322547.23-P1P2_05: sgRNA targeting MTOR, GGGCAGGGGGCTTGAAGCGG, SEQ ID NO: 148 (listed as DNA, chemistry not fully specified)”, the “Perturb-seq pooled growth sgRNA counts, d5” value is reported as 4083, the “Perturb-seq pooled growth sgRNA counts, d10” value is reported as 3324 and the “Perturb-seq pooled growth sgRNA counts, T0” value is reported as 5595.

For “MTOR_+_11322547.23-P1P2_06: sgRNA targeting MTOR, GGGCAGGGGGGCTGAAGCGG, SEQ ID NO: 149 (listed as DNA, chemistry not fully specified)”, the “Perturb-seq pooled growth sgRNA counts, d5” value was 3358, the “Perturb-seq pooled growth sgRNA counts, d10” value was 3174 and the “Perturb-seq pooled growth sgRNA counts, T0” value was 4142.

For “MTOR_+_11322547.23-P1P2_07: sgRNA targeting MTOR, GGGCAGGGGGTCTGAAGCGG, SEQ ID NO: 147 (listed as DNA, chemistry not fully specified)”, the “Perturb-seq pooled growth sgRNA counts, d5” value was 3183, the “Perturb-seq pooled growth sgRNA counts, d10” value was 1899 and the “Perturb-seq pooled growth sgRNA counts, T0” value was 6761.

With “MTOR_+_11322547.23-P1P2_10: sgRNA targeting MTOR, GGGCAGGGGGCCTGAAGCAG, SEQ ID NO: 150 (listed as DNA, chemistry not fully specified)” the “Perturb-seq pooled growth sgRNA counts, d5” value was 7332, the “Perturb-seq pooled growth sgRNA counts, d10” value was 7827 and the “Perturb-seq pooled growth sgRNA counts, T0” value was 7076.

For “POLR1D_+_28196016.23-P1_00: sgRNA targeting POLR1D, GGGAAGCAAGGACCGACCGA, SEQ ID NO: 11 (listed as DNA, chemistry not fully specified)”, the “Perturb-seq pooled growth sgRNA counts, d5” value was 3429, the “Perturb-seq pooled growth sgRNA counts, d10” value was 1496 and the “Perturb-seq pooled growth sgRNA counts, T0” value was 11671.

With “POLR1D_+_28196016.23-P1_01: sgRNA targeting POLR1D, GGGAAGCCAGGACCGACCGA, SEQ ID NO: 76 (listed as DNA, chemistry not fully specified)” the “Perturb-seq pooled growth sgRNA counts, d5” value was 4460, the “Perturb-seq pooled growth sgRNA counts, d10” value was 2528 and the “Perturb-seq pooled growth sgRNA counts, T0” value was 12679.

For “POLR1D_+_28196016.23-P1_03: sgRNA targeting POLR1D, GGTAAGCAAGGACCGACCGA, SEQ ID NO: 75 (listed as DNA, chemistry not fully specified)”, the “Perturb-seq pooled growth sgRNA counts, d5” value was 2365, the “Perturb-seq pooled growth sgRNA counts, d10” value was 933 and the “Perturb-seq pooled growth sgRNA counts, T0” value was 10266.

In the case of “POLR1D_+_28196016.23-P1_07: sgRNA targeting POLR1D, GGGAAGCAAGGAGCGACCGA, SEQ ID NO: 77 (listed as DNA, chemistry not fully specified)”, the “Perturb-seq pooled growth sgRNA counts, d5” value is reported as 16283, the “Perturb-seq pooled growth sgRNA counts, d10” value is reported as 16285 and the “Perturb-seq pooled growth sgRNA counts, T0” value is reported as 15589.

“POLR1D_+_28196016.23-P1_08: sgRNA targeting POLR1D, GGGAAGCAGGGACCGACCGA, SEQ ID NO: 74 (listed as DNA, chemistry not fully specified)” was tested, and the “Perturb-seq pooled growth sgRNA counts, d5” value was 4205, the “Perturb-seq pooled growth sgRNA counts, d10” value was 1986 and the “Perturb-seq pooled growth sgRNA counts, T0” value was 16414.

With “POLR2H_+_184081251.23-P1P2_00: sgRNA targeting POLR2H, GGGGCCACGAGAGCAGCAGA, SEQ ID NO: 28 (listed as DNA, chemistry not fully specified)” the “Perturb-seq pooled growth sgRNA counts, d5” value was 947, the “Perturb-seq pooled growth sgRNA counts, d10” value was 1103 and the “Perturb-seq pooled growth sgRNA counts, T0” value was 9498.

In the case of “POLR2H_+_184081251.23-P1P2_07: sgRNA targeting POLR2H, GGGGCCACGAGTGCAGCAGA, SEQ ID NO: 118 (listed as DNA, chemistry not fully specified)”, the “Perturb-seq pooled growth sgRNA counts, d5” value is reported as 6381, the “Perturb-seq pooled growth sgRNA counts, d10” value is reported as 8153 and the “Perturb-seq pooled growth sgRNA counts, T0” value is reported as 4472.

“POLR2H_+_184081251.23-P1P2_08: sgRNA targeting POLR2H, GGGGCCACGCGAGCAGCAGA, SEQ ID NO: 116 (listed as DNA, chemistry not fully specified)” was tested, and the “Perturb-seq pooled growth sgRNA counts, d5” value was 3492, the “Perturb-seq pooled growth sgRNA counts, d10” value was 3869 and the “Perturb-seq pooled growth sgRNA counts, T0” value was 6134.

For “POLR2H_+_184081251.23-P1P2_11: sgRNA targeting POLR2H, GGGGCCACGAGAGCAGCGGA, SEQ ID NO: 115 (listed as DNA, chemistry not fully specified)”, the “Perturb-seq pooled growth sgRNA counts, d5” value was 898, the “Perturb-seq pooled growth sgRNA counts, d10” value was 1144 and the “Perturb-seq pooled growth sgRNA counts, T0” value was 5900.
